The record followed here is PubChem BioAssay AID256 (DTP/NCI, 2004).

This assay relates to CD2F1 mice, L1210 leukemia ip, survival T/C. The assay is described as follows: NCI In Vivo Anticancer Drug Screen. Data for tumor model L1210 Leukemia (intraperitoneal) in CD2F1 (CDF1) mice. As to conditions: higher = longer survival. In a few lines: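 Ratio T/C, where T is the treated-group value and C the vehicle-dosed control value, from mice implanted with a transplantable tumor.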

Where [1] appears, read: endpoint: median survival time, dose: 200.0 mg/kg/injection, schedule: Q01DX005 (ip), vehicle: saline with Tween-80.
[2] abbreviates: endpoint: mean survival time, dose: 100.0 mg/kg/injection, schedule: Q01DX009 (ip), vehicle: saline.
Where [3] appears, read: endpoint: mean survival time, dose: 200.0 mg/kg/injection, schedule: Q01DX009 (ip), vehicle: saline.
The mark [4] stands for this setting: endpoint: mean survival time, dose: 400.0 mg/kg/injection, schedule: Q01DX009 (ip), vehicle: saline.
Where [5] appears, read: endpoint: mean survival time, dose: 100.0 mg/kg/injection, schedule: Q04DX003 (ip), vehicle: saline.
[6] abbreviates: endpoint: mean survival time, dose: 200.0 mg/kg/injection, schedule: Q04DX003 (ip), vehicle: saline.
[7] abbreviates: endpoint: mean survival time, dose: 400.0 mg/kg/injection, schedule: Q04DX003 (ip), vehicle: saline.
[8] abbreviates: endpoint: mean survival time, dose: 100.0 mg/kg/injection, schedule: Q04DX003 (ip), vehicle: saline with Tween-80.
Setting [9] is: endpoint: mean survival time, dose: 100.0 mg/kg/injection, schedule: Q01DX009 (ip), vehicle: saline with Tween-80.
[10] abbreviates: endpoint: mean survival time, dose: 200.0 mg/kg/injection, schedule: Q01DX009 (ip), vehicle: saline with Tween-80.
[11] abbreviates: endpoint: mean survival time, dose: 200.0 mg/kg/injection, schedule: Q04DX003 (ip), vehicle: saline with Tween-80.
The mark [12] stands for this setting: endpoint: mean survival time, dose: 400.0 mg/kg/injection, schedule: Q04DX003 (ip), vehicle: saline with Tween-80.
The mark [13] stands for this setting: endpoint: mean survival time, dose: 100.0 mg/kg/injection, schedule: Q04DX002 (ip), vehicle: saline with Tween-80.
The mark [14] stands for this setting: endpoint: mean survival time, dose: 200.0 mg/kg/injection, schedule: Q04DX002 (ip), vehicle: saline with Tween-80.
[15] abbreviates: endpoint: mean survival time, dose: 25.0 mg/kg/injection, schedule: Q04DX002 (ip), vehicle: saline with Tween-80.
[16] abbreviates: endpoint: mean survival time, dose: 50.0 mg/kg/injection, schedule: Q04DX002 (ip), vehicle: saline with Tween-80.

Several values for one entry are separate records, joined by “and”; a condition that tells them apart may be missing. Equal values may be shown once. Toxic doses and inconclusive results are not listed.

For `CNC(=O)Oc1ccc(S(=O)(=O)c2ccc(OC(=O)NC)cc2)cc1`, the T/C reads like this: (endpoint: median survival time, dose: 12.5 mg/kg/injection, schedule: Q01DX009 (ip), vehicle: saline with Tween-80) 103 % of control; (endpoint: median survival time, dose: 25.0 mg/kg/injection, schedule: Q01DX009 (ip), vehicle: saline with Tween-80) 115 % of control and 112 % of control; (endpoint: median survival time, dose: 43.0 mg/kg/injection, schedule: Q01DX005 (ip), vehicle: saline with Tween-80) 113 % of control; (endpoint: median survival time, dose: 43.0 mg/kg/injection, schedule: Q01DX009 (ip), vehicle: saline with Tween-80) 102 % of control; (endpoint: median survival time, dose: 50.0 mg/kg/injection, schedule: Q01DX009 (ip), vehicle: saline with Tween-80) 120 % of control; (endpoint: median survival time, dose: 72.0 mg/kg/injection, schedule: Q01DX005 (ip), vehicle: saline with Tween-80) 108 % of control and 109 % of control. Also, the T/C is 101 % of control (endpoint: median survival time, dose: 72.0 mg/kg/injection, schedule: Q01DX009 (ip), vehicle: saline with Tween-80); 122 % of control (endpoint: median survival time, dose: 100.0 mg/kg/injection, schedule: Q01DX009 (ip), vehicle: saline with Tween-80); 109 % of control and 112 % of control (endpoint: median survival time, dose: 120.0 mg/kg/injection, schedule: Q01DX005 (ip), vehicle: saline with Tween-80); 106 % of control (endpoint: median survival time, dose: 120.0 mg/kg/injection, schedule: Q01DX009 (ip), vehicle: saline with Tween-80); 104 % of control and 109 % of control under setting [1]; 151 % of control (endpoint: median survival time, dose: 200.0 mg/kg/injection, schedule: Q01DX009 (ip), vehicle: saline with Tween-80). For the same molecule, where the note is “endpoint: median survival time, dose: 333.0 mg/kg/injection, schedule: Q01DX005 (ip), vehicle: saline with Tween-80”, the T/C is 109 % of control.

Turning to `O=[N+]([O-])CC(O)C(O)C(O)C(O)CO` (stereo not given), the T/C under setting [2] was 107 % of control, the T/C under setting [3] was 112 % of control and the T/C under setting [4] is 107 % of control.

On to `Nc1nc2c(c(=O)[nH]1)N(C(=O)NCCCl)C(CNc1ccc(C(=O)NC(CCC(=O)O)C(=O)O)cc1)CN2` (stereo not given), for which the T/C reads like this: (endpoint: mean survival time, dose: 100.0 mg/kg/injection, schedule: Q01DX001 (ip), vehicle: sodium bicarbonate) 94 % of control; (endpoint: mean survival time, dose: 200.0 mg/kg/injection, schedule: Q01DX001 (ip), vehicle: sodium bicarbonate) 100 % of control; (endpoint: mean survival time, dose: 400.0 mg/kg/injection, schedule: Q01DX001 (ip), vehicle: sodium bicarbonate) 97 % of control.

For `FC(F)(F)COP1(OCC(F)(F)F)=NP(OCC(F)(F)F)(OCC(F)(F)F)=NP(c2ccccc2)(c2ccccc2)=N1`, the T/C is, setting by setting: under setting [5], 102 % of control; under setting [6], 100 % of control; under setting [7], 100 % of control.

On to `Cc1cc([N+](=O)[O-])cc(Br)c1N`, for which the T/C was 93 % of control (endpoint: mean survival time, dose: 44.0 mg/kg/injection, schedule: Q04DX003 (ip), vehicle: saline with Tween-80); 95 % of control (endpoint: mean survival time, dose: 66.0 mg/kg/injection, schedule: Q04DX003 (ip), vehicle: saline with Tween-80); 93 % of control under setting [8]; 95 % of control (endpoint: mean survival time, dose: 150.0 mg/kg/injection, schedule: Q04DX003 (ip), vehicle: saline with Tween-80).

Turning to `Cc1cn(C2CC(O)C(COC(=O)Nc3cccc4ccccc34)O2)c(=O)[nH]c1=O` (stereo not given), the T/C is 100 % of control (endpoint: mean survival time, dose: 12.5 mg/kg/injection, schedule: Q01DX005 (ip), vehicle: other); 100 % of control (endpoint: mean survival time, dose: 25.0 mg/kg/injection, schedule: Q01DX005 (ip), vehicle: other); 90 % of control (endpoint: mean survival time, dose: 50.0 mg/kg/injection, schedule: Q01DX005 (ip), vehicle: other); 94 % of control (endpoint: mean survival time, dose: 100.0 mg/kg/injection, schedule: Q01DX005 (ip), vehicle: other); 94 % of control (endpoint: mean survival time, dose: 200.0 mg/kg/injection, schedule: Q01DX005 (ip), vehicle: other).

Consider `N#CCCN1C(=O)CCC1=O`, for which the T/C is 97 % of control under setting [9]; 95 % of control under setting [8]; 95 % of control under setting [10]; 97 % of control under setting [11]; 92 % of control (endpoint: mean survival time, dose: 400.0 mg/kg/injection, schedule: Q01DX009 (ip), vehicle: saline with Tween-80); 95 % of control under setting [12].

Consider `CC(C)c1ccc2c(c1)CC[C@H]1[C@](C)(CN=C(N)CCl)CCC[C@]21C`, for which the T/C reads like this: under setting [13], 102 % of control; under setting [14], 95 % of control.

For the molecule `CSc1ccccc1C(=O)O`, the T/C by setting is: under setting [8], 102 % of control and 95 % of control; under setting [11], 96 % of control and 101 % of control; under setting [12], 102 % of control and 101 % of control.

Turning to `CC(=O)Nc1ccc([N+](=O)[O-])c(C(F)(F)F)c1`, the T/C runs as follows: under setting [8], 98 % of control; under setting [11], 103 % of control.

For the molecule `O=c1[nH]c2cc([N+](=O)[O-])ccc2c2ccccc12`, the T/C (endpoint: mean survival time, dose: 50.0 mg/kg/injection, schedule: Q01DX001 (ip), vehicle: carboxymethylcellulose (CMC)) was 101 % of control; the T/C (endpoint: mean survival time, dose: 100.0 mg/kg/injection, schedule: Q01DX001 (ip), vehicle: carboxymethylcellulose (CMC)) was 98 % of control; the T/C (endpoint: mean survival time, dose: 200.0 mg/kg/injection, schedule: Q01DX001 (ip), vehicle: carboxymethylcellulose (CMC)) is 98 % of control; the T/C (endpoint: mean survival time, dose: 400.0 mg/kg/injection, schedule: Q01DX001 (ip), vehicle: carboxymethylcellulose (CMC)) was 98 % of control.

As to `[O-][n+]1cccc(CCc2ccc[n+]([O-])c2)c1`, the T/C is 100 % of control (endpoint: mean survival time, dose: 50.0 mg/kg/injection, schedule: Q01DX009 (ip), vehicle: saline); 104 % of control under setting [2]; 100 % of control under setting [3].

For `N#CC1CC(c2cccs2)Nc2ccccc2N1` (stereo not given), the T/C is, setting by setting: under setting [8], 94 % of control; under setting [11], 90 % of control; under setting [12], 100 % of control.

With `COc1cc(/C=N\N=C\c2ccc(O)c(OC)c2)ccc1O`, the T/C under setting [9] was 98 % of control and the T/C under setting [10] is 96 % of control.

On to `CN(C)c1ccc(Cc2ccc(N(C)C)cc2)cc1`, for which the T/C is, setting by setting: under setting [8], 96 % of control; under setting [11], 100 % of control; under setting [12], 93 % of control.

Take `CC1CC(=O)OC2CC(C)(C)CC(=O)C12` (stereo not given): the T/C is 104 % of control under setting [2]; 98 % of control (endpoint: mean survival time, dose: 100.0 mg/kg/injection, schedule: Q04DX003 (ip), vehicle: saline sonified); 106 % of control under setting [3]; 95 % of control (endpoint: mean survival time, dose: 200.0 mg/kg/injection, schedule: Q04DX003 (ip), vehicle: saline sonified); 104 % of control under setting [4]; 95 % of control (endpoint: mean survival time, dose: 400.0 mg/kg/injection, schedule: Q04DX003 (ip), vehicle: saline sonified).

Turning to `O=c1nc2n(cc1F)C1OC(CCl)C(O)C1O2` (stereo not given), the T/C by setting is: (endpoint: median survival time, dose: 12.5 mg/kg/injection, schedule: Q01DX005 (ip), vehicle: saline with Tween-80) 101 % of control; (endpoint: median survival time, dose: 25.0 mg/kg/injection, schedule: Q01DX005 (ip), vehicle: saline with Tween-80) 104 % of control; (endpoint: median survival time, dose: 50.0 mg/kg/injection, schedule: Q01DX005 (ip), vehicle: saline with Tween-80) 97 % of control; (endpoint: median survival time, dose: 100.0 mg/kg/injection, schedule: Q01DX005 (ip), vehicle: saline with Tween-80) 101 % of control; under setting [1], 105 % of control.

As to `Clc1nnc(-c2ccccc2)s1`, the T/C runs as follows: under setting [8], 101 % of control; under setting [11], 91 % of control.

For `O=C(COc1c(Cl)cc(Cl)cc1Cl)Nc1ccc2c(c1)C(=O)c1ccccc1C2=O`, the T/C is 98 % of control under setting [15], 98 % of control under setting [16] and 94 % of control under setting [13].

For the molecule `[Co+3].[NH-]CC(=O)O.[NH-]CC(=O)O.[NH-]CC(=O)O`, the T/C is 104 % of control and 101 % of control under setting [15]; 104 % of control and 96 % of control under setting [16]; 104 % of control and 106 % of control under setting [13]; 117 % of control under setting [14].

For `O=[N+]([O-])c1ccc2c(c1)Cc1cc(N(CBr)CBr)ccc1-2`, the T/C reads like this: under setting [5], 109 % of control; under setting [6], 107 % of control; under setting [7], 121 % of control.

Consider `O=C(Nc1ccc(Cl)cc1)Oc1ccc2ccccc2c1`, for which the T/C (endpoint: mean survival time, dose: 100.0 mg/kg/injection, schedule: Q01DX001 (ip), vehicle: saline) is 96 % of control; the T/C (endpoint: mean survival time, dose: 200.0 mg/kg/injection, schedule: Q01DX001 (ip), vehicle: saline) is 94 % of control; the T/C (endpoint: mean survival time, dose: 400.0 mg/kg/injection, schedule: Q01DX001 (ip), vehicle: saline) is 111 % of control.
